{
  "source": "patent US9795138B2",
  "about": "“Method for increasing the vigor and/or crop yield of agricultural plants under essentially non-existent pathogen pressure” (Bayer CropScience LP, priority 2009, dated 2017)",
  "key": {"peas": {"system": "peas", "test": "Pea seed treatment, greenhouse plant fresh weight, Colby", "assay_type": "in vivo", "details": "12 days at 20° C., pyraclostrobin 5 g/100 kg seed, SERENADE MAX 173 g/100 kg seed", "experimental": "The active compounds were used applying commercially available formulations and diluted according to the concentrations/dose rates as stated in the respective data tables.\nSeed treatment was done to seeds of peas using the Hege Seed Treatment equipment in a sequential approach. Pyraclostrobin was applied with a volume of 850 mL slurry per 100 kg seeds. Afterwards the stated amount of SERENADE® MAX was dissolved in a total volume of 8.3 L water (amount for 100 kg seeds) and applied sequentially in ten steps with drying of the seeds in between. The compounds were used as commercial finished formulations and diluted with water to the stated concentration of the active compound.\nSeeds of peas were sown in soil (10 seeds/pot, 10 replications/treatment) and incubated in the greenhouse at 20° C. for 12 days. Plants were harvested and pooled per treatment and the plant fresh weight was determined.\nThe expected plant fresh weights of active compound mixtures were determined using Colby's formula as defined above [R. S. Colby, “Calculating Synergistic and Antagonistic Responses of Herbicide Combinations,” Weeds 15, 20-22 (1967)] and compared with the observed plant fresh weights."}, "[1]": {"system": "maize plants (variety Burrus 616XLR)", "test": "Maize field trial Carlyle, Ill.: grain yield, Colby", "assay_type": "in vivo", "text": "Maize was planted in 2009 at Carlyle, Ill., U.S.A. The variety Burrus 616XLR was planted at a conventional seeding rate and a row spacing of 76 cm. The trial was setup as a randomized bloc design with six replications. Plot size was 18 m^2. Pyraclostrobin was applied at developmental stage 34/37 (BBCH). Bacillus subtilis QST 713 (SERENADE® MAX) was applied to the maize plants at developmental stage 34/37 (BBCH) followed by a second application at developmental stage 55/57 (BBCH). Bacillus subtilis QST 713 (SERENADE® MAX) in combination with pyraclostrobin were applied as a tank mix at the developmental stage 34/37 (BBCH). The active ingredients were applied using commercial formulations SERENADE® MAX (14.3%, WP with 7.3×10^9 cfu/g) and HEADLINE® (250 g/L, EC). Total spray volume for foliar applications was 200 L/ha. […] At maturity the crop was harvested and grain yield was measured as t/ha (Table 10).\nThe expected yield increase by the combination of the active compounds was estimated using Colby's formula (Colby, S. R., “Calculating Synergistic and Antagonistic Responses of Herbicide Combinations,” Weeds, 15, pp. 20-22, 1967) and compared with the observed yield increase. […]"}},
  "data": [
    {"molecule": "COC(=O)N(OC)c1ccccc1COc1ccn(-c2ccc(Cl)cc2)n1", "note": "[Pyraclostrobin, pyraclostrobin]", "values": [
      {"measurement": "Fresh Weight", "setting": "peas", "value": 47, "unit": "g"},
      {"measurement": "Grain Yield (t/ha)", "setting": "[1]; maize, pyraclostrobin 0.44 L/ha solo (0.3 L/ha in mix) at BBCH 34/37, SERENADE MAX 3.0 kg/ha at 34/37 (solo also 55/57)", "value": 8.32, "unit": "t/ha"},
      {"measurement": "Observed Yield Increase (t/ha)", "setting": "[1]; vs untreated, same treatments", "value": 0.05, "unit": "t/ha"}
    ]}
  ]
}
